The source of these data is patent publication US12459951B2, “Compounds that interact with RAS superfamily proteins for treatment of cancers, inflammatory diseases, rasopathies, and fibrotic disease” (SHY Therapeutics, LLC, priority 2022, dated 2025).

Data set [1] concerns JNK phosphorylation. The data set is described as follows: JNK Activation Assay (western blot), Panc-1. Conditions: at 10 μM, Panc-1 pancreatic cancer cell line; starred symbols = activation. The data set is classed as cell-based, human. The essentials:
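KRas G12C Panc-1 cells treated 6 h at 37 °C with compound at 10 μM (0.3% DMSO), or serial dilutions for IC50. In Method 1 cells were serum-starved overnight (0.5% FBS) then stimulated with 1.5 ng/ml EGF for 15 min; Method 2 used 10% FBS without stimulation. Phospho-JNK (Thr183/Tyr185) measured by western blot.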

Data set [2] can be described thus: Kinetic Solubility Assay in pH 7.4 Buffer + 2% DMSO. The data set is classed as physicochemical. Conditions: phosphate-buffered saline pH 7.4 with 2% DMSO, aqueous buffer, kinetic from dmso stock, 25° C., two hours. The procedure, abridged: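 Compound from 20 mM DMSO stock diluted to nominal 400 μM in PBS pH 7.4 with 2% DMSO, in duplicate, shaken 2 h at 25° C., then filtered. Filtrate quantified by UV absorbance (230-550 nm) against 10-200 μM calibration curves; effective range ~2-400 μM.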

The nature of data set [3]: Mouse Liver Microsome Metabolic Stability Assay. The format is in vitro ADME. Conditions: pH 7.4, Mouse liver microsomes, 37° C., NADPH, read-out: t½. The procedure, abridged: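 Compounds (2 μM, 1.6% solvent) incubated at 37 °C with mouse liver microsomes (0.42 mg/mL) in 100 mM phosphate pH 7.4 with an NADPH-regenerating system; five time points over 40 min, duplicates, LC-MS/MS. kel, t1/2 and Clint from linear regression of ln(AUC) vs. time; no-NADPH controls.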

With `Cc1c(-c2ccn(C(C)C)n2)cn2nc(-c3nccn3C)nc(Nc3ccccn3)c12` [Compound 57, 6-(1-Isopropyl-1H-pyrazol-3-yl)-5-methyl-2-(1-methyl-1H-imidazol-2-yl)-N-(pyridin-2-yl)pyrrolo[2,1-f][1,2,4]triazin-4-amine], the “% inh of JNK in Panc-1” value in data set [1] is “H* (H* ≥ 100% activation)”. Also, the solubility at 2 h in data set [2] lay in the range of 10 to 30 µM.
Take `COc1cc(-c2cn3nc(-c4nccn4C)nc(Nc4cc(OC)ncn4)c3c2C)ccn1` [Compound 50, 6-(2-Methoxypyridin-4-yl)-N-(6-methoxypyrimidin-4-yl)-5-methyl-2-(1-methyl-1H-imidazol-2-yl)pyrrolo[2,1-f][1,2,4]triazin-4-amine]: the solubility at 2 h in data set [2] was less than 10 µM.
In the case of `Cc1cc(Nc2nc(-c3nccn3C)nn3cc(-c4ccn(C)n4)c(C)c23)n[nH]1` [Compound 255, 5-Methyl-2-(1-methyl-1H-imidazol-2-yl)-6-(1-methyl-1H-pyrazol-3-yl)-N-(5-methyl-1H-pyrazol-3-yl)pyrrolo[2,1-f][1,2,4]triazin-4-amine], the solubility at 2 h in data set [2] was more than 30 µM. Besides, the half-life at 2 µM in data set [3] is more than 10 min.
On the same counts, the results for `Cc1[nH]nc(Nc2nc(-c3nccn3C)nn3cc(-c4ccn(C)n4)c(C)c23)c1C` [Compound 267, N-(4,5-Dimethyl-1H-pyrazol-3-yl)-5-methyl-2-(1-methyl-1H-imidazol-2-yl)-6-(1-methyl-1H-pyrazol-3-yl)pyrrolo[2,1-f][1,2,4]triazin-4-amine] are 10 to 30 µM and more than 10 min.
Turning to `COc1cc(Nc2nc(-c3nccn3C)nn3cc(-c4ccn(C)n4)c(C)c23)n[nH]1` [Compound 252, N-(5-Methoxy-1H-pyrazol-3-yl)-5-methyl-2-(1-methyl-1H-imidazol-2-yl)-6-(1-methyl-1H-pyrazol-3-yl)pyrrolo[2,1-f][1,2,4]triazin-4-amine], the solubility at 2 h in data set [2] was less than 10 µM. The half-life at 2 µM in data set [3] is less than 10 min.
For `Cc1c(-c2ccn(C)n2)cn2nc(-c3nccn3C)nc(Nc3cc(C(C)C)[nH]n3)c12` [Compound 268, N-(5-Isopropyl-1H-pyrazol-3-yl)-5-methyl-2-(1-methyl-1H-imidazol-2-yl)-6-(1-methyl-1H-pyrazol-3-yl)pyrrolo[2,1-f][1,2,4]triazin-4-amine], in that order: less than 10 µM and less than 10 min.
Consider `COc1ccnc(Nc2nc(-c3nccn3C)nn3cc(-c4ccn(C(C)C)n4)c(C)c23)c1` [Compound 58, 6-(1-Isopropyl-1H-pyrazol-3-yl)-N-(4-methoxypyridin-2-yl)-5-methyl-2-(1-methyl-1H-imidazol-2-yl)pyrrolo[2,1-f][1,2,4]triazin-4-amine], for which the “% inh of JNK in Panc-1” value in data set [1] was “H* (H* ≥ 100% activation)”. Moreover, in data set [2], the solubility at 2 h is 10 to 30 µM.
On to `Cc1c(-c2ccn(C(C)C)n2)cn2nc(-c3nccn3C)nc(Nc3cnccn3)c12` [Compound 62, 6-(1-Isopropyl-1H-pyrazol-3-yl)-5-methyl-2-(1-methyl-1H-imidazol-2-yl)-N-(pyrazin-2-yl)pyrrolo[2,1-f][1,2,4]triazin-4-amine], for which, in data set [1], the “% inh of JNK in Panc-1” value was “H* (H* ≥ 100% activation)”. In addition, the solubility at 2 h in data set [2] was less than 10 µM.
On to `Cc1c(-c2ccn(C)n2)cn2nc(-c3nccn3C)nc(Nc3cc(-c4ccccn4)[nH]n3)c12` [Compound 265, 5-Methyl-2-(1-methyl-1H-imidazol-2-yl)-6-(1-methyl-1H-pyrazol-3-yl)-N-(5-(pyridin-2-yl)-1H-pyrazol-3-yl)pyrrolo[2,1-f][1,2,4]triazin-4-amine], for which, in data set [2], the solubility at 2 h was less than 10 µM. Moreover, the half-life at 2 µM in data set [3] was more than 10 min.
Take `CCOc1cc(Nc2nc(-c3nccn3C)nn3cc(-c4ccn(C)n4)c(C)c23)n[nH]1` [Compound 260, N-(5-Ethoxy-1H-pyrazol-3-yl)-5-methyl-2-(1-methyl-1H-imidazol-2-yl)-6-(1-methyl-1H-pyrazol-3-yl)pyrrolo[2,1-f][1,2,4]triazin-4-amine]: in data set [2], the solubility at 2 h is less than 10 µM. Moreover, the half-life at 2 µM in data set [3] is less than 10 min.
Regarding `Cc1c(-c2ccn(C(C)C)n2)cn2nc(-c3nccn3C)nc(Nc3ncccn3)c12` [Compound 54, 6-(1-Isopropyl-1H-pyrazol-3-yl)-5-methyl-2-(1-methyl-1H-imidazol-2-yl)-N-(pyrimidin-2-yl)pyrrolo[2,1-f][1,2,4]triazin-4-amine], in data set [1], the “% inh of JNK in Panc-1” value is on record as “H* (H* ≥ 100% activation)”. Also, the solubility at 2 h in data set [2] was less than 10 µM.
Consider `Cc1c(-c2ccn(C)n2)cn2nc(-c3nccn3C)nc(Nc3cc(-c4ccccn4)ccn3)c12` [Compound 248, N-([2,4′-Bipyridin]-2′-yl)-5-methyl-2-(1-methyl-1H-imidazol-2-yl)-6-(1-methyl-1H-pyrazol-3-yl)pyrrolo[2,1-f][1,2,4]triazin-4-amine], for which, in data set [2], the solubility at 2 h was less than 10 µM. In data set [3], the half-life at 2 µM was more than 10 min.
For `Cc1c(-c2ccn(C)n2)cn2nc(-c3nccn3C)nc(Nc3cc(-c4cccnc4)ccn3)c12` [Compound 250, N-([3,4′-Bipyridin]-2′-yl)-5-methyl-2-(1-methyl-1H-imidazol-2-yl)-6-(1-methyl-1H-pyrazol-3-yl)pyrrolo[2,1-f][1,2,4]triazin-4-amine], in that order: less than 10 µM and less than 10 min.
On to `Cc1c(-c2ccn(C(C)C)n2)cn2nc(-c3nccn3C)nc(Nc3ccncn3)c12` [Compound 55, 6-(1-Isopropyl-1H-pyrazol-3-yl)-5-methyl-2-(1-methyl-1H-imidazol-2-yl)-N-(pyrimidin-4-yl)pyrrolo[2,1-f][1,2,4]triazin-4-amine], for which the “% inh of JNK in Panc-1” value in data set [1] is “H* (H* ≥ 100% activation)”. Besides, the solubility at 2 h in data set [2] fell in the range of 10 to 30 µM.
On to `Cc1c(-c2ccn(C(C)C)n2)cn2nc(-c3nccn3C)nc(Nc3ncco3)c12` [Compound 60, N-(6-(1-Isopropyl-1H-pyrazol-3-yl)-5-methyl-2-(1-methyl-1H-imidazol-2-yl)pyrrolo[2,1-f][1,2,4]triazin-4-yl)oxazol-2-amine], for which the “% inh of JNK in Panc-1” value in data set [1] is given as “H* (H* ≥ 100% activation)”.
With `COc1cc(Nc2nc(-c3nccn3C)nn3cc(-c4ccn(C)n4)c(C)c23)ncn1` [Compound 63, N-(6-Methoxypyrimidin-4-yl)-5-methyl-2-(1-methyl-1H-imidazol-2-yl)-6-(1-methyl-1H-pyrazol-3-yl)pyrrolo[2,1-f][1,2,4]triazin-4-amine], the “% inh of JNK in Panc-1” value in data set [1] was “H* (H* ≥ 100% activation)”. In data set [2], the solubility at 2 h is less than 10 µM.
For `COc1ccnc(Nc2nc(-c3nccn3C)nn3cc(-c4ccn(C(C)C)n4)c(C)c23)n1` [Compound 53, 6-(1-Isopropyl-1H-pyrazol-3-yl)-N-(4-methoxypyrimidin-2-yl)-5-methyl-2-(1-methyl-1H-imidazol-2-yl)pyrrolo[2,1-f][1,2,4]triazin-4-amine], in that order: “H* (H* ≥ 100% activation)” and 10 to 30 µM.
On the same counts, the results for `Cc1c(-c2ccn(C(C)C)n2)cn2nc(-c3nccn3C)nc(Nc3nnco3)c12` [Compound 59, N-(6-(1-Isopropyl-1H-pyrazol-3-yl)-5-methyl-2-(1-methyl-1H-imidazol-2-yl)pyrrolo[2,1-f][1,2,4]triazin-4-yl)-1,3,4-oxadiazol-2-amine] are “H* (H* ≥ 100% activation)” and less than 10 µM.
On to `COCCCNc1nc(-c2nccn2C)nn2cc(-c3cccc(OC)c3Cl)c(-c3ccccc3)c12` [Compound 30, 6-(2-Chloro-3-methoxyphenyl)-N-(3-methoxypropyl)-2-(1-methyl-1H-imidazol-2-yl)-5-phenylpyrrolo[2,1-f][1,2,4]triazin-4-amine], for which the “% inh of JNK in Panc-1” value in data set [1] was “F (F = 31-74% inhibition)”.
On the same count and under the same terms, under `COC1CCCN(c2nc(-c3ccccn3)nn3cc(-c4ccn(C(C)C)n4)c(-c4ccccc4)c23)C1` (racemic) [Compound 27, rac 6-(1-Isopropyl-1H-pyrazol-3-yl)-4-(3-methoxypiperidin-1-yl)-5-phenyl-2-(pyridin-2-yl)pyrrolo[2,1-f][1,2,4]triazine] stands “H* (H* ≥ 100% activation)”.
